Assay results: the supplement of paper PMC10307832

Tests used:
Test in all cases: relative viability (nuclei count vs DMSO), 5 days (fraction); higher = more cells survive
[1] = compound: Cc1ccc(C(=O)Nc2ccc(CN3CCN(C)CC3)c(C(F)(F)F)c2)cc1C#Cc1cnc2cccnn12 [Ponatinib] + C[C@@H](Oc1cc(-c2cnn(C3CCNCC3)c2)cnc1N)c1c(Cl)ccc(F)c1Cl [Crizotinib] (partner 1 µM)
Summary of the method: (§1)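 Lung cancer cell lines, seeded in 1536-well plates, were treated the following day by pin tool with a single drug or with five library-drug doses (not always all listed) in √10 steps on top of a fixed anchor-drug dose. Cells were fixed and nuclei stained in one step after 5 days, and nuclei were counted. Relative viability is the nuclei count for treated wells divided by that for vehicle wells, reported as medians of duplicate plates.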

[2] = compound: Cc1ccc(C(=O)Nc2ccc(CN3CCN(C)CC3)c(C(F)(F)F)c2)cc1C#Cc1cnc2cccnn12 [Ponatinib] + Nc1ncn([C@H]2C[C@H](O)[C@@H](CO)O2)c(=O)n1 [Decitabine] (partner 2 µM)
Summary of the method: as §1

[3] = compound: Cc1ccc(Nc2nccc(N(C)c3ccc4c(C)n(C)nc4c3)n2)cc1S(N)(=O)=O [Pazopanib] + Cc1cc(Nc2cc(N3CCN(C)CC3)nc(Sc3ccc(NC(=O)C4CC4)cc3)n2)n[nH]1 [Tozasertib] (partner 0.1 µM)
Summary of the method: as §1

[4] = compound: Cc1ccc(Nc2nccc(N(C)c3ccc4c(C)n(C)nc4c3)n2)cc1S(N)(=O)=O [Pazopanib] + O=C(CCCCCCC(=O)Nc1ccccc1)NO [Vorinostat] (partner 1 µM)
Summary of the method: as §1

Cell Line	relative viability ([1]; first compound 0.002 µM)	relative viability ([1]; first compound 0.006325 µM)	relative viability ([1]; first compound 0.06325 µM)	relative viability ([1]; first compound 0.2 µM)	relative viability ([2]; first compound 0.002 µM)	relative viability ([2]; first compound 0.006325 µM)	relative viability ([2]; first compound 0.06325 µM)	relative viability ([2]; first compound 0.2 µM)	relative viability ([3]; first compound 0.01 µM)	relative viability ([3]; first compound 0.03162 µM)	relative viability ([3]; first compound 0.1 µM)	relative viability ([3]; first compound 0.3162 µM)	relative viability ([3]; first compound 1 µM)	relative viability ([4]; first compound 0.01 µM)	relative viability ([4]; first compound 0.03162 µM)	relative viability ([4]; first compound 0.1 µM)	relative viability ([4]; first compound 0.3162 µM)	relative viability ([4]; first compound 1 µM)
ChaGo-K-1	1.12	1.16	1.08	0.95	0.517	0.507	0.54	0.512	0.21	0.221	0.241	0.257	0.255	0.743	0.772	0.756	0.757	0.727
COR-L 105	0.706	1.05	0.791	0.703	0.671	0.674	0.821	0.61	0.341	0.345	0.356	0.334	0.382	0.867	0.959	0.765	0.878	0.882
NCI-H1975	0.929	1.02	1.01	0.943	0.386	0.425	0.413	0.437	0.665	0.693	0.854	0.742	0.581	0.712	0.76	0.805	0.723	0.754
NCI-H1993	0.796	1.01	1.01	1	0.549	0.583	0.671	0.61		0.54	0.656	0.589	0.579		0.851	0.832	0.741	0.763
SK-LU-1	0.804	0.948	0.963	0.777	0.562	0.569	0.639	0.555	0.332	0.361	0.334	0.28	0.318	0.756	0.852	0.755	0.621	0.861
NCI-H23	0.471	0.488	0.504	0.558	0.286	0.313	0.332	0.297	0.373	0.341	0.359	0.458	0.392	0.431	0.641	0.628	0.661	0.782
HCC-366	0.474	0.506	0.531	0.519	0.336	0.317	0.387	0.37	0.124	0.132	0.0845	0.163	0.068	0.239	0.336	0.414	0.379	0.81
EMC-BAC-2	0.708	0.661	0.747	0.727	0.927	0.899	1.04	0.842		0.302	0.302	0.226	0.278		0.512	0.232	0.472	0.432
NCI-H3122	0.267	0.278	0.315	0.366	0.457	0.545	0.472	0.411	0.408	0.382	0.435	0.394	0.426	0.794	0.926	0.89	1.02	1.05
SK-MES-1	0.978	1	1.04	0.92	0.392	0.334	0.419	0.372	0.934	0.891	0.916	0.905	0.786	1.03	0.989	1.27	1.09	1.07
NCI-H2170	1.13	1.15	1.22	1.17	0.508	0.481	0.467	0.431	0.772	0.724	0.73	0.67	0.674	0.624	0.848	0.877	0.796	0.829
EPLC-272H	0.787	0.753	0.886	0.811	0.334	0.399	0.416	0.326		0.352	0.167	0.21	0.241	0.389	0.432	0.682	0.652	0.535
NCI-H1915	0.801	0.844	0.839	0.794	0.244	0.274	0.246	0.257	0.455	0.422	0.468	0.407	0.399	0.385	0.481	0.513	0.525	0.455
NCI-H647	0.851	1.07	1.12	0.989	0.319	0.369	0.429	0.407	0.23	0.279	0.395	0.43	0.321	0.443	0.59	0.706	0.394	0.421
NCI-H441	0.576	0.632	0.835	0.607	0.228	0.246	0.271	0.267	0.798	0.683	0.784	0.558	0.518	0.736	1.06	0.865	0.838	0.645
NCI-H650	0.598	0.663	0.695	0.605	0.296	0.319	0.341	0.299	0.688	0.826	0.691	0.804	0.655	0.381	0.466	0.398	0.364	0.485
NCI-H358	0.536	0.512	0.517	0.502	0.193	0.326	0.221	0.204	0.109	0.0888	0.104		0.0878	0.752	0.656	0.782	0.728	0.694
NCI-H2085	0.837	0.704	0.939	0.842	0.541	0.58	0.613	0.565	0.738	0.848	0.828	0.786	0.776	0.674	0.849	0.758	0.838	0.86
